{"source": "patent US20140309295A1", "about": "“ANTIEPILEPTIC, HYPOCHOLESTEROLEMIC AND NEUROPROTECTIVE COMPOUND” (NEURON BIOPHARMA, S.A., priority 2009, published 2014)", "key": {"[1]": {"tested_on": "Hep G2 (human hepatocarcinoma) line", "test": "Total cholesterol levels in hepatic cell line", "type": "cell-based", "settings": "HepG2, acid compounds, 20 hours, absence of FBS", "method": "To carry out this assay, the compounds were activated with NaOH until the lactone form was completely opened.\nBoth the Hep G2 (human hepatocarcinoma) line and the SK-N-MC (human neuroblastoma) line were obtained from the American Type Culture Collection (ATCC no. HB-8065 and HTB-10 respectively). In all cases strict rules of sterility were followed and the manipulation was performed in class II biological safety cabinets following European standard EN 12469. The cells maintained in passage were seeded in 96-well plates in MEM supplemented with 10% FBS, 2 mM L-glutamine, 1 mM sodium pyruvate, 0.1 mM non-essential amino acids and 0.05 mg/mL gentamicin. In the case of HepG2, 4×10^4 cells/well were seeded and in the case of SK-N-MC 5×10^4 cells/well were seeded. After 24 hours had elapsed from the seeding, the cells were deprived of FBS for 8 hours. The cells were then incubated with the treatments at various concentrations for 20 hours. After the incubation period, the cells were washed with PBS and lysed with a phosphate buffer with 0.5% Triton X-100. […]\nThe total cholesterol was quantified by means of enzymatic and fluorometric techniques. […] The fluorescence intensity was determined at 530 nm of excitation and 580 nm of emission by means of a fluorometer. The results were normalized by protein, which was determined by means of the BCA technique."}, "adult zebrafish": {"tested_on": "adult zebrafish", "test": "Single-dose toxicity assay (24 hours exposure in water) in adult zebrafish", "settings": "14 days post-treatment", "description": "Subsequently they were fed like the rest of the animals. • Weight of the animals: they were weighed at time 0 (before the treatment), at 7 and at 14 days post-treatment.\nIn this case, the weight of the animals of the different study groups at three established times: before starting the treatments (0 dpt), at day 7 post-treatment and at day 14 post-treatment, was used as a toxicity parameter. […] To that end, the fish were sacrificed at 14 days post-treatment (previously anesthetized) and the samples (whole fish) were included in paraffin. The hematoxylin-eosin staining was subsequently performed in order to conduct the histopathological studies, obtaining a minimum of 6 longitudinal sections per animal, for the purpose of collecting different study areas of the same organ. The following organs were studied: brain, kidney, pancreas, intestine, eye, gills, ovary, testicle, muscle and liver."}, "[2]": {"tested_on": "Aβ(1-40) and Aβ(1-42) secreted by SK-N-MC cells overexpressing APP", "test": "Secretion of β-amyloid peptide in SK-N-MC cells overexpressing APP (ELISA)", "type": "cell-based, human", "method": "The assay was performed on human neuroblastoma SK-N-MC cells in culture from the American Type Culture Collection (ATCC), stably transfected with a construct carried by the APP gene (beta-amyloid precursor protein, Gene ID: 351) in isoform 695, which is the most frequent variant expressed in neurons, whereby overexpression of the APP protein is achieved. In all cases strict rules of sterility were followed and the manipulation was performed in class II biological safety cabinets following European standard EN 12469. […]\nThe cells were incubated (at 37° C. and 5% CO2) with these treatments for 48 hours, 500 μl of conditioned medium then being collected to perform the measurements. […] The two most frequent Aβ species, 1-40 and 1-42, were measured. […] The amount of Aβ(1-40) and Aβ(1-42) of the conditioned medium was analyzed for each treatment by means of ELISA (Enzyme-linked immunosorbent assay), using the “beta amyloid 40 ELISA” and “beta amyloid 42 ELISA” kit (Biosource), following the recommendations of the manufacturer. The results were quantified by using an increasing concentration curve with synthetic peptides. […]"}, "ApoB100 mice": {"tested_on": "ApoB100 mice", "test": "Hypocholesterolemic effect in endogenous hyperlipidemia model, single i.p. dose", "type": "in vivo", "settings": "50 mg/kg i.p., 12 hours", "method": "All the animals included for the experimental process were 46-week old males of the ApoB100 strain, which strain has a deficiency in removing cholesterol from the blood which causes an abnormally high increase of plasma cholesterol. The experiments were conducted strictly following the Guidance on the Operation of Animals (Scientific Procedures, Act. 1986). The animals had their respective quarantine period and were treated with maximum precaution to minimize possible contaminations for inoculations and handling.\nIn order to conduct the experiment on the fasting animals, blood was extracted by ocular puncture. The plasma was obtained from said blood, in which plasma total cholesterol levels and levels of its fractions were determined prior to administration of the substances under study. Immediately after that, the animals were intraperitoneally inoculated with 50 mg/kg of each of the test compounds. Four animals were treated with the vehicle and were considered the control group. […] Finally, a third group of five mice received 50 mg/Kg of NST0037. Twelve hours after the treatments, blood was again extracted from the fasting animals and the plasma was obtained from said blood."}}}
{"smiles": "CCC(CC)C(=O)O[C@H]1C[C@@H](C)C=C2C=C[C@H](C)[C@H](CC[C@@H]3C[C@@H](O)CC(=O)O3)[C@H]21", "note": "[NST0037, (1S,2S,6R,8S,8aR)-1,2,6,7,8,8a-hexahydro-3,7-dimethyl-8-[2-[(2R,4R)-tetrahydro-4-hydroxy-6-oxo-2H-pyran-2-yl]ethyl]-1-naphthalenyl-2-ethyl-butyrate]", "values": [{"measurement": "reduction of total cholesterol levels", "setting": "[1]", "result": "more potent than simvastatin"}, {"measurement": "histopathology: intestine", "setting": "adult zebrafish; 2000 mg/Kg", "result": "Atrophy signs in the intestinal villi"}, {"measurement": "histopathology: liver", "setting": "adult zebrafish; 2000 mg/Kg", "result": "discrete inflammation areas"}, {"measurement": "weight of the animals", "setting": "adult zebrafish; 2000 mg/kg, 24 hours exposure in water", "result": "did not modify the weight"}, {"measurement": "secreted Aβ(1-40) with respect to control cells", "setting": "[2]; 10, 40 and 100 μM of NST0037, 48 hours", "result": "a reduction is obtained"}, {"measurement": "secreted Aβ(1-42) with respect to control cells", "setting": "[2]; 10 and 40 μM of NST0037, 48 hours", "result": "a reduction is obtained"}, {"measurement": "HDL-c levels", "setting": "ApoB100 mice", "result": "without changing"}, {"measurement": "LDL-c levels", "setting": "ApoB100 mice", "result": "considerably reduced"}, {"measurement": "VLDL-c levels", "setting": "ApoB100 mice", "result": "considerably reduced"}, {"measurement": "esterified cholesterol (EC) levels", "setting": "ApoB100 mice", "result": "reduced the EC levels in a similar manner"}, {"measurement": "free cholesterol (FC) levels", "setting": "ApoB100 mice", "result": "without changing FC levels"}, {"measurement": "plasma total cholesterol levels", "setting": "ApoB100 mice; male ApoB100 mice", "result": "significant hypocholesterolemic effect"}]}
